Laboratory results published in the Deep4Chem optical property database.
Values belong to the compound of their own block, whether it stands above or below them.

Experiment: photoluminescence quantum yield (fraction); solvent given as SMILES

Structure (SMILES): O=C1NC(c2ccccc2)=N/C1=C\c1ccccc1
- photoluminescence quantum yield (in C1COCCO1): 0.001

Structure (SMILES): O=c1cc2c(Br)c(O)c3cccc4ccc(o1)c2c43
- photoluminescence quantum yield (in CC1CCCO1): 0.15

Structure (SMILES): COCCC1=Cc2nc1ccc1[nH]c(cc1CCOC)c1nc(ccc3[nH]c2cc3CCO)C(CCOC)=C1
- photoluminescence quantum yield (in Cc1ccccc1): 0.32

Structure (SMILES): Cc1ccc(C2=[N+]3C(=Cc4c(C)cc(C)n4[B-]3(F)F)c3ccccc32)[nH]1
- photoluminescence quantum yield (in C1CCOC1): 0.82
- photoluminescence quantum yield (in CC#N): 0.84
- photoluminescence quantum yield (in CCCCCC): 0.91
- photoluminescence quantum yield (in CO): 0.83
- photoluminescence quantum yield (in Cc1ccccc1): 0.83
- photoluminescence quantum yield (in ClCCl): 0.89

Structure (SMILES): COc1ccc(-c2nnc(-c3cc(-n4c5ccccc5c5ccccc54)c(-n4c5ccccc5c5ccccc54)cc3-c3nnc(-c4ccc(OC)cc4)o3)o2)cc1
- photoluminescence quantum yield (in Cc1ccccc1): 0.47

Structure (SMILES): CN(C)c1ccc2c(c1)COc1c-2oc2ccccc2c1=O
- photoluminescence quantum yield (in C1CCCCC1): 0.5
- photoluminescence quantum yield (in C1CCOC1): 0.91
- photoluminescence quantum yield (in CC#N): 0.86
- photoluminescence quantum yield (in CCOC(C)=O): 0.95
- photoluminescence quantum yield (in CCOCC): 1
- photoluminescence quantum yield (in CO): 0.68
- photoluminescence quantum yield (in Cc1ccccc1): 1

Structure (SMILES): c1ccc2c(c1)Sc1ccc(-n3c4ccccc4c4ccccc43)cc1S2
- photoluminescence quantum yield (in CC1CCCCC1): 0.04
- photoluminescence quantum yield (in c1cc(-c2cccc(-n3c4ccccc4c4ccccc43)c2)cc(-n2c3ccccc3c3ccccc32)c1): 0.1

Structure (SMILES): c1ccc(N2c3ccc4ccccc4c3-c3c4ccccc4cn[n+]3[B-]2(c2ccccc2)c2ccccc2)cc1
- photoluminescence quantum yield (in Cc1ccccc1): 0.05

Structure (SMILES): CC1=CC(C)=[N+]2C1=C(c1ccc(-c3c4ccccc4c(-c4ccccc4)c4ccccc34)cc1)c1c(C)cc(C)n1[B-]2(F)F
- photoluminescence quantum yield (in CC#N): 0.11
- photoluminescence quantum yield (in CCCCCC): 0.7
- photoluminescence quantum yield (in CCO): 0.37
- photoluminescence quantum yield (in CN(C)C=O): 0.13
- photoluminescence quantum yield (in Cc1ccccc1): 0.65
- photoluminescence quantum yield (in ClCCl): 0.57

Structure (SMILES): c1ccc(N(c2ccccc2)c2ccc(-c3ncc(-c4ccc(-c5cnc(-c6ccc(N(c7ccccc7)c7ccccc7)cc6)s5)s4)s3)cc2)cc1
- photoluminescence quantum yield (in CO): 0.16

Structure (SMILES): O=C1CCCC2=C1C(c1ccc([N+](=O)[O-])cc1)c1c(c3ccccc3oc1=O)N2 (stereo not given)
- photoluminescence quantum yield (in CS(C)=O): 0.014

Structure (SMILES): CC(C)(C)c1ccc(-c2cc(-c3ccc(-c4cc(-c5ccc(C(C)(C)C)cc5)c(C(=O)NCc5cccs5)s4)s3)sc2C(=O)NCc2cccs2)cc1
- photoluminescence quantum yield (in ClCCl): 0.33

Structure (SMILES): COc1cc(-c2nc3c4cccnc4c4ncccc4c3[nH]2)c(OC)cc1/C=C/c1ccncc1
- photoluminescence quantum yield (in C1CCOC1): 0.79
- photoluminescence quantum yield (in CC#N): 0.48
- photoluminescence quantum yield (in CN(C)C=O): 0.59
- photoluminescence quantum yield (in Cc1ccccc1): 0.34

Structure (SMILES): Cc1c2c(c(C)c3ccccc13)-c1c-2ccc2nc3ccccc3nc12
- photoluminescence quantum yield (in ClC(Cl)Cl): 0.02

Structure (SMILES): CCCCCCc1ccc2c3c(ccc2c1)O[B-](c1ccccc1)(c1ccccc1)[N+](c1cc([N+]2=Cc4c(ccc5cc(CCCCCC)ccc45)O[B-]2(c2ccccc2)c2ccccc2)cc([N+]2=Cc4c(ccc5cc(CCCCCC)ccc45)O[B-]2(c2ccccc2)c2ccccc2)c1)=C3
- photoluminescence quantum yield (in C1CCOC1): 0.21
- photoluminescence quantum yield (in CC#N): 0.19
- photoluminescence quantum yield (in Cc1ccccc1): 0.29
- photoluminescence quantum yield (in ClCCl): 0.31

Structure (SMILES): C#CCNC1=C2C(C)=CC(C)=[N+]2[B-](F)(F)n2c(C)cc(C)c21
- photoluminescence quantum yield (in C1CCCCC1): 0.23
- photoluminescence quantum yield (in CC(C)=O): 0.063
- photoluminescence quantum yield (in CCOC(C)=O): 0.084
- photoluminescence quantum yield (in CO): 0.051
- photoluminescence quantum yield (in OCC(F)(F)F): 0.074

Structure (SMILES): Cc1cc(C#Cc2ccccc2)c2ccc3c(C#Cc4ccccc4)cc(C#Cc4ccccc4)c4ccc1c2c43
- photoluminescence quantum yield (in CS(C)=O): 0.72
- photoluminescence quantum yield (in ClC(Cl)(Cl)Cl): 0.56

Structure (SMILES): COc1cccc(-c2nc3c([nH]2)C2=CC(=O)S[C@]2(C)[C@@]2(C)SC(=O)C=C32)c1OC
- photoluminescence quantum yield (in CC#N): 0.12

Structure (SMILES): COc1ccc(N(c2ccc(C=C(c3ccccc3)c3ccccc3)cc2)c2ccc(OC)cc2)cc1
- photoluminescence quantum yield (in Cc1ccccc1): 0.01

Structure (SMILES): O=C1c2ccc(-c3ccc(N(c4ccc(-c5ccccc5)cc4)c4ccc(-c5ccccc5)cc4)cc3)cc2C(=O)c2ccc(-c3ccc(N(c4ccc(-c5ccccc5)cc4)c4ccc(-c5ccccc5)cc4)cc3)cc21
- photoluminescence quantum yield (in Cc1ccccc1): 0.62
- photoluminescence quantum yield (in c1ccc2c(c1)c1ccccc1n2-c1ccc(-c2ccc(-n3c4ccccc4c4ccccc43)cc2)cc1): 0.76

Structure (SMILES): COc1ccc(N(c2ccc(OC)cc2)c2ccc(-c3ccc(-c4ccc(-c5ccc(-c6ccc(N(c7ccc(OC)cc7)c7ccc(OC)cc7)cc6)s5)c5nsnc45)s3)cc2)cc1
- photoluminescence quantum yield (in ClC(Cl)Cl): 0.18

Structure (SMILES): CC1=CC(C)=[N+]2C1=C(c1ccc(C(=O)OC3C[C@@H]4CC[C@]3(C)C4(C)C)cc1)c1c(C)cc(C)n1[B-]2(F)F (stereo not given in full)
- photoluminescence quantum yield (in Cc1ccccc1): 0.37

Structure (SMILES): COc1cc(-c2nc3sc4ccccc4c3s2)cc(OC)c1OC
- photoluminescence quantum yield (in CS(C)=O): 0.6

Structure (SMILES): COc1ccccc1-c1nc2c3ccccc3c3ccccc3c2o1
- photoluminescence quantum yield (in Cc1ccccc1): 0.53

Structure (SMILES): COc1ccc(-c2cc(C)nc(-c3ccc(-n4c5ccccc5c5ccccc54)cc3)n2)cc1
- photoluminescence quantum yield (in C1CCOC1): 0.47
- photoluminescence quantum yield (in CN(C)C=O): 0.66
- photoluminescence quantum yield (in Cc1ccccc1): 0.34
- photoluminescence quantum yield (in ClC(Cl)Cl): 0.68

Structure (SMILES): CCOC(=O)c1sc(SC)c2c(=O)n(C)nnc12
- photoluminescence quantum yield (in C1CCOC1): 0.016
- photoluminescence quantum yield (in CC#N): 0.029
- photoluminescence quantum yield (in CCO): 0.054
- photoluminescence quantum yield (in CN(C)C=O): 0.013
- photoluminescence quantum yield (in CO): 0.052
- photoluminescence quantum yield (in CS(C)=O): 0.0077

Structure (SMILES): CCCCCCCCCCCCC(CCCCCCCCCC)Cn1c2cc(/C=C/c3nc4ccccc4s3)c3cccc4c5cccc6c(/C=C/c7nc8ccccc8s7)cc1c(c65)c2c34 (stereo not given)
- photoluminescence quantum yield (in C1CCCCC1): 0.42
- photoluminescence quantum yield (in CC#N): 0.434
- photoluminescence quantum yield (in Cc1ccccc1): 0.398
- photoluminescence quantum yield (in ClCCl): 0.369

Structure (SMILES): CC1=N/C(=C\c2cccc(N(C)C)c2)C(=O)N1C
- photoluminescence quantum yield (in C1CCOC1): 0.14
- photoluminescence quantum yield (in CC#N): 0.05
- photoluminescence quantum yield (in CCCCCC): 0.46

Structure (SMILES): CC1=C(c2ccc(N(c3ccccc3)c3ccccc3)cc2)C(C)=[N+]2C1=C(c1c(-c3ccccn3)nc3ccccn13)c1c(C)c(-c3ccc(N(c4ccccc4)c4ccccc4)cc3)c(C)n1[B-]2(F)F
- photoluminescence quantum yield (in ClCCl): 0.0078

Structure (SMILES): c1ccc2c(c1)Oc1ccccc1N2c1ccc2c(c1)c1ccccc1n1c3ccccc3nc21
- photoluminescence quantum yield (in O=P(c1ccccc1)(c1ccccc1)c1ccccc1Oc1ccccc1P(=O)(c1ccccc1)c1ccccc1): 0.8

Structure (SMILES): CC[N+]1(CC)CN2C(=N1)C(C(=O)O)=Cc1cc(C)ccc12
- photoluminescence quantum yield (in O): 0.269

Structure (SMILES): CC1=[N+]2C(=C(Oc3ccccc3)c3ccc(C)n3[B-]2(F)F)C=C1c1cc2n(c1)[B-](F)(F)[N+]1=CC=CC1=C2c1c(C)cc(C)cc1C
- photoluminescence quantum yield (in C1CCCCC1): 0.89
- photoluminescence quantum yield (in CCOC(C)=O): 0.16

Structure (SMILES): CC1(C)CC(/C=C/c2ccc(N3CCOCCOCCOCCOCC3)cc2)=CC(=C(C#N)C#N)C1
- photoluminescence quantum yield (in CCO): 0.111

Structure (SMILES): CC(C)(C)c1cc(C(C)(C)C)c2oc3c(c2c1)C=CN1C(=O)C2=C4c5oc6c(C(C)(C)C)cc(C(C)(C)C)cc6c5C=CN4C(=O)C2=C31
- photoluminescence quantum yield (in CN(C)C=O): 0.6
- photoluminescence quantum yield (in ClC(Cl)Cl): 0.99

Structure (SMILES): Brc1c(Br)c2ccc3c(Br)c(Br)c4ccc5ccc1c1c5c4c3c21
- photoluminescence quantum yield (in C1CCCCC1): 0.0012

Structure (SMILES): c1ccc(-c2nc3c(-c4ccc(N(c5ccccc5)c5ccccc5)cc4)ccc(-c4ccc(N(c5ccccc5)c5ccccc5)cc4)c3nc2-c2ccccc2)cc1
- photoluminescence quantum yield (in ClC(Cl)Cl): 0.51

Further lines, results first:

- photoluminescence quantum yield (in C1CCOC1): 0.048
Structure (SMILES): CCCCC1(CCCC)c2cc(C#Cc3ccc(C=C(c4ccccc4)c4ccccc4)cc3)ccc2-c2ccc(C#Cc3ccc(C=C(c4ccccc4)c4ccccc4)cc3)cc21

- photoluminescence quantum yield (in CC#N): 0.029
Structure (SMILES): C[n+]1ccn(CCCCc2ccc3c(c2)c2ccccc2n3-c2cc(C#N)c(C#N)cc2F)c1

- photoluminescence quantum yield (in C1CCOC1): 0.025
- photoluminescence quantum yield (in ClC(Cl)Cl): 0.03
- photoluminescence quantum yield (in ClCCl): 0.015
Structure (SMILES): COc1ccc2cc(C#Cc3ccc([N+](=O)[O-])cc3)ccc2c1

- photoluminescence quantum yield (in CC#N): 0.02
Structure (SMILES): Cc1cc(=O)c2c(ccc3ccc(O)cc32)o1

- photoluminescence quantum yield (in C1CCCCC1): 1
Structure (SMILES): CCC(C)(C)c1ccc2c(c1)C(CC)(CC)c1cc(-c3ccc(-c4ccc5c(c4)C(CC)(CC)c4cc(C(C)(C)CC)ccc4-5)cc3)ccc1-2

- photoluminescence quantum yield (in ClCCl): 0.84
Structure (SMILES): CCN(CC)c1ccc2cc(C#N)c(=N)oc2c1

- photoluminescence quantum yield (in ClCCl): 0.039
Structure (SMILES): Cc1ccc(C(=O)c2c(C)c3ccc4cccc5c6cccc7ccc2c(c76)c3c45)cc1

- photoluminescence quantum yield (in ClCCl): 0.21
Structure (SMILES): CCN(CC)c1ccc2cc(-c3nc4cc(C(=O)Nc5cccc(OC)c5)ccc4o3)c(=O)oc2c1

- photoluminescence quantum yield (in C1CCOC1): 0.042
Structure (SMILES): CN(C)c1ccc(C(=Cc2ccc(/C=C/c3ccc(C#N)cc3)cc2)c2ccc(N(C)C)cc2)cc1

- photoluminescence quantum yield (in ClCCl): 0.22
Structure (SMILES): CN(C)c1ccc(/C=C/c2cc(/C=C/c3ccc(N(C)C)cc3)nc(/C=C/c3ccc(N(C)C)cc3)n2)cc1

- photoluminescence quantum yield (in ClCCl): 0.002
Structure (SMILES): N#C/C(=C(/C#N)c1ccc(-c2ccncc2)cc1)c1ccc(-c2ccncc2)cc1

- photoluminescence quantum yield (in ClCCl): 0.02
Structure (SMILES): c1ccc2c(c1)c1ccccc1c1ccccc21

- photoluminescence quantum yield (in CC#N): 0.005
- photoluminescence quantum yield (in CO): 0.015
- photoluminescence quantum yield (in ClCCl): 0.37
Structure (SMILES): CCCCCCN(CCCCCC)c1ccc(C#Cc2ccc(C#N)cc2)cc1

- photoluminescence quantum yield (in CS(C)=O): 0.03
Structure (SMILES): Brc1ccc2cc3c4ccccc4nc(-c4ccco4)c3n2c1

- photoluminescence quantum yield (in ClC(Cl)Cl): 0.83
Structure (SMILES): CCCCCCCCOc1ccc(-c2c3c4n(c(-c5ccc(OCCCCCCCC)cc5)c3c3n2[B-](F)(F)[n+]2c(ccc5ccccc52)N=3)[B-](F)(F)[n+]2c(ccc3ccccc32)N=4)cc1

- photoluminescence quantum yield (in CO): 0.43
- photoluminescence quantum yield (in ClC(Cl)Cl): 0.58
Structure (SMILES): CCCCCCCCCCN1C(=O)c2cc(NCCCOCCO)c3c4c(cc(NCCCOCCO)c(c24)C1=O)C(=O)N(CCCCCCCCCC)C3=O

- photoluminescence quantum yield (in ClCCl): 0.114
Structure (SMILES): COC(=O)c1[nH]c(-c2ccc(Br)cc2)c2nnc3ccc(OC)cc3c12

- photoluminescence quantum yield (in ClCCl): 0.73
Structure (SMILES): COc1ccc(-c2c3ccccc3c(C#Cc3ccccc3)c3cc4cc(C)sc4cc23)cc1

- photoluminescence quantum yield (in C1CCOC1): 0.29
Structure (SMILES): Cc1ccc(-c2cnc3nn4ccccc4c3c2)cc1

- photoluminescence quantum yield (in C1CCCCC1): 0.24
Structure (SMILES): CCCCCCCCOc1ccc2c3c(c4ccc(OCCCCCCCC)cc4c2c1)C(C)(C)c1ccccc1-3

- photoluminescence quantum yield (in CC#N): 0.062
Structure (SMILES): COc1ccc(-c2csc(/C(C#N)=C/c3ccccc3Cl)n2)cc1

- photoluminescence quantum yield (in ClCCl): 0.02
Structure (SMILES): CN(C)c1ccc(/C=C/c2nc(/C=C/c3ccc(N(C)C)cc3)c3ccccc3n2)cc1

- photoluminescence quantum yield (in C1CCOC1): 0.34
- photoluminescence quantum yield (in CS(C)=O): 0.07
- photoluminescence quantum yield (in ClCCl): 0.33
Structure (SMILES): CCN(CC)c1ccc2cc(-c3csc(NC(C)=O)c3C#N)c(=O)oc2c1
